Molecular target: T1, SMO (Mus musculus, UniProt P56726)
T1 construct: expressed in transfected cells; host or cells: HEK293T
Experiment: SMO binding assay (BODIPY-cyclopamine displacement)
Format: cell-based
Settings: HEK293T cells expressing SMO, 5 nM BODIPY-cyclopamine
Experimental: Supplementary Figure S2. […] HEK293T cells […]
ectopically expressing SMO were treated with different concentrations of 7a or Vismodegib and DMSO as controls in the presence of BODIPY-cyclopamine (5 nM) for 5 h. The graph […]
activated cell sorting analysis. Data are mean values of three independent experiments (n=3) ± […]
using a three-fold dilution series starting from a concentration of 30 μM. Half-maximal inhibitory concentrations (IC50) were calculated using the Quattro software suite (Quattro Research, Planegg, Germany) or GraphPad Prism 7 (GraphPad, USA).
The effect of test compounds on the viability of C3H/10T1/2 cells was determined by CellTiter-Glo Luminescence cell viability assay (Promega). Cells were treated as described for the osteogenesis assay prior to addition of the CellTiter-Glo® reagent according to manufacturer’s protocol. Compounds causing at least a 50% reduction in the osteogenesis assay and retaining cell viability of at least 80% were considered as hits. Dose-response analyses were performed for all hit compounds using a three-fold dilution series starting from a concentration of 30 μM. Half-maximal inhibitory concentrations (IC50) were calculated using the Quattro software suite (Quattro Research GmbH).
GLI-dependent reporter gene assay
Shh-LIGHT2 cells were seeded (2.5×10^4 per well) in 96-well plates. After incubation for 16 h, medium was replaced by low serum-containing medium (0.5% FCS) supplemented with 1.5 μM purmorphamine and various concentrations of the compounds or DMSO as a control and cells were incubated for 48 h. Firefly and Renilla luciferase activities were determined by means of the Dual-Luciferase® Reporter Assay System (Promega) according to the manufacturer’s protocol and luminescence was measured using the Spark plate reader (Tecan, […]
HEK293T cells were seeded (1.5×10^4 per well) on poly-D-lysine-coated coverslips placed in a 24-well plate. 24 h later cells were transfected with the SMO-expressing plasmid (pGEN-mSMO) using FuGENE HD (Promega) according to the manufacturer’s protocol. […]

T1 sequence (P56726 33-793): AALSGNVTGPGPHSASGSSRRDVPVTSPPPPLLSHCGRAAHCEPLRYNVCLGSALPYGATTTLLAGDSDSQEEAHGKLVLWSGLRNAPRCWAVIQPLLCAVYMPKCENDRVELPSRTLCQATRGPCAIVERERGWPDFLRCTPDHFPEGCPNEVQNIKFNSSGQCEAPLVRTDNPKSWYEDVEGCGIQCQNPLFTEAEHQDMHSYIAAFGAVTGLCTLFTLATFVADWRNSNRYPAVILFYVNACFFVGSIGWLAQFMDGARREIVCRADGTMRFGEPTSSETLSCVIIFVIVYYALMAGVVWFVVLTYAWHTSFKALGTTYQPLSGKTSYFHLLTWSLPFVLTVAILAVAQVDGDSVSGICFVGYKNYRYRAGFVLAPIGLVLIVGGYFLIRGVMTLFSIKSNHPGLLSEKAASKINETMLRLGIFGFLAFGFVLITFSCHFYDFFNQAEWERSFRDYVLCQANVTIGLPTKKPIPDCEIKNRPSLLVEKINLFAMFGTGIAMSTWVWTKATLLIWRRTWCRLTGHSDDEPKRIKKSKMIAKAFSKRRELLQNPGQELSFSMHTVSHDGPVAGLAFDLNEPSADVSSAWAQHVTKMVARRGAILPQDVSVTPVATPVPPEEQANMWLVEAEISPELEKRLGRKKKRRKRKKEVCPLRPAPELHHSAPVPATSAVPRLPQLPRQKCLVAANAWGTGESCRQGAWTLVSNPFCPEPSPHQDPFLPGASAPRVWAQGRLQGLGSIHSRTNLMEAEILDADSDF

Row | SMILES | Displacement of BODIPY-cyclopamine from SMO (in words) | Displacement of BODIPY-cyclopamine from SMO (in words) (listed as 7 a)
1 | COC(=O)C1(C(CC(=O)c2ccccc2)c2ccccc2)N=C(c2ccc(Br)cc2)C2C(=O)N(C)C(=O)C21 (stereo not drawn) [7a] | does not displace | did not displace
2 | COC(=O)C1(C(CC(=O)c2cccnc2)c2ccccc2)N=C(c2ccc(Br)cc2)C2C(=O)N(C)C(=O)C21 (stereo not drawn) [7l] | partial decrease | –
